For assay [1], the system named is Eimeria maxima. The assay is described as follows: Anticoccidial activity against Eimeria maxima in chickens assessed as reduction of oocysts at 50 ppm measured after 8 days by ExMAC assay relative to untreated control. Type of assay: functional. More on the design: scale not given: the % may be the effect or the level left.
Assay [2] has as its target cGMP-dependent protein kinase (Eimeria tenella, UniProt Q8MMZ8). The assay is described as follows: Inhibition of Eimeria tenella cGMP-dependent protein kinase.
Assay [3] has as its system Eimeria acervulina. The experiment in a line: Anticoccidial activity against Eimeria acervulina in chickens assessed as reduction of oocysts at 50 ppm measured after 8 days by ExMAC assay relative to untreated control. The class given is functional. More on the design: scale not given: the % may be the effect or the level left.
For assay [4], the system named is Eimeria mitis. The experiment in a line: Anticoccidial activity against Eimeria mitis in chickens assessed as reduction of oocysts at 50 ppm measured after 8 days by ExMAC assay relative to untreated control. Type of assay: functional. More on the design: scale not given: the % may be the effect or the level left.
Assay [5] relates to Eimeria tenella. The experiment in a line: Anticoccidial activity against Eimeria tenella in chickens assessed as reduction of oocysts at 50 ppm measured after 8 days by ExMAC assay relative to untreated control. The class given is functional. More on the design: scale not given: the % may be the effect or the level left.
Assay [6] has as its system Eimeria tenella. The assay is described as follows: Anticoccidial activity against Eimeria tenella in chickens assessed as reduction of oocysts at 3 ppm measured after 8 days by ExMAC assay relative to untreated control. Also noted: scale not given: the % may be the effect or the level left. Type of assay: functional.
Assay [7] relates to Eimeria maxima. The assay is described as follows: Anticoccidial activity against Eimeria maxima in chickens assessed as reduction of oocysts at 12 ppm measured after 8 days by ExMAC assay relative to untreated control. The class given is functional. More on the design: scale not given: the % may be the effect or the level left.
In assay [8] the test system is Eimeria mitis. The assay is described as follows: Anticoccidial activity against Eimeria mitis in chickens assessed as reduction of oocysts at 6 ppm measured after 8 days by ExMAC assay relative to untreated control. More on the design: scale not given: the % may be the effect or the level left. Type of assay: functional.
Assay [9] deals with Eimeria maxima. The assay is described as follows: Anticoccidial activity against Eimeria maxima in chickens assessed as reduction of oocysts at 6 ppm measured after 8 days by ExMAC assay relative to untreated control. More on the design: scale not given: the % may be the effect or the level left. Type of assay: functional.
Assay [10] deals with Eimeria tenella. The assay is described as follows: Anticoccidial activity against Eimeria tenella in chickens assessed as reduction of oocysts at 6 ppm measured after 8 days by ExMAC assay relative to untreated control. The class given is functional. Also noted: scale not given: the % may be the effect or the level left.
Assay [11] concerns Eimeria mitis. The assay is described as follows: Anticoccidial activity against Eimeria mitis in chickens assessed as reduction of oocysts at 12 ppm measured after 8 days by ExMAC assay relative to untreated control. More on the design: scale not given: the % may be the effect or the level left. The class given is functional.
Assay [12] has as its system Eimeria acervulina. The assay is described as follows: Anticoccidial activity against Eimeria acervulina in chickens assessed as reduction of oocysts at 3 ppm measured after 8 days by ExMAC assay relative to untreated control. The class given is functional. Also noted: scale not given: the % may be the effect or the level left.
The subject of assay [13] is Eimeria tenella. The assay is described as follows: Anticoccidial activity against Eimeria tenella in chickens assessed as reduction of oocysts at 12 ppm measured after 8 days by ExMAC assay relative to untreated control. The class given is functional. Also noted: scale not given: the % may be the effect or the level left.
The subject of assay [14] is Eimeria mitis. The assay is described as follows: Anticoccidial activity against Eimeria mitis in chickens assessed as reduction of oocysts at 3 ppm measured after 8 days by ExMAC assay relative to untreated control. More on the design: scale not given: the % may be the effect or the level left. Type of assay: functional.
Assay [15] has as its system Eimeria maxima. The assay is described as follows: Anticoccidial activity against Eimeria maxima in chickens assessed as reduction of oocysts at 3 ppm measured after 8 days by ExMAC assay relative to untreated control. Type of assay: functional. More on the design: scale not given: the % may be the effect or the level left.
In assay [16] the test system is Eimeria acervulina. The experiment in a line: Anticoccidial activity against Eimeria acervulina in chickens assessed as reduction of oocysts at 12 ppm measured after 8 days by ExMAC assay relative to untreated control. Type of assay: functional. More on the design: scale not given: the % may be the effect or the level left.
The test system of assay [17] is Eimeria acervulina. The assay is described as follows: Anticoccidial activity against Eimeria acervulina in chickens assessed as reduction of oocysts at 6 ppm measured after 8 days by ExMAC assay relative to untreated control. Type of assay: functional. More on the design: scale not given: the % may be the effect or the level left.
The test system of assay [18] is Eimeria acervulina. The assay is described as follows: Anticoccidial activity against Eimeria acervulina in chickens assessed as reduction of oocysts at 25 ppm measured after 8 days by ExMAC assay relative to untreated control. More on the design: scale not given: the % may be the effect or the level left. Type of assay: functional.
For assay [19], the system named is Eimeria tenella. The experiment in a line: Anticoccidial activity against Eimeria tenella in chickens assessed as reduction of oocysts at 10 ppm measured after 8 days by ExMAC assay relative to untreated control. The class given is functional. More on the design: scale not given: the % may be the effect or the level left.
Assay [20] deals with Eimeria acervulina. The assay is described as follows: Anticoccidial activity against Eimeria acervulina in chickens assessed as reduction of oocysts at 12.5 ppm measured after 8 days by ExMAC assay relative to untreated control. Type of assay: functional. Also noted: scale not given: the % may be the effect or the level left.
Assay [21] concerns Eimeria tenella. The experiment in a line: Anticoccidial activity against Eimeria tenella in chickens assessed as reduction of oocysts at 25 ppm measured after 8 days by ExMAC assay relative to untreated control. Type of assay: functional. More on the design: scale not given: the % may be the effect or the level left.
Assay [22] relates to Eimeria mitis. The experiment in a line: Anticoccidial activity against Eimeria mitis in chickens assessed as reduction of oocysts at 10 ppm measured after 8 days by ExMAC assay relative to untreated control. Type of assay: functional. Also noted: scale not given: the % may be the effect or the level left.
Assay [23] relates to Eimeria acervulina. The assay is described as follows: Anticoccidial activity against Eimeria acervulina in chickens assessed as reduction of oocysts at 10 ppm measured after 8 days by ExMAC assay relative to untreated control. Type of assay: functional. More on the design: scale not given: the % may be the effect or the level left.
For assay [24], the system named is Eimeria tenella. The experiment in a line: Anticoccidial activity against Eimeria tenella in chickens assessed as reduction of oocysts at 8 ppm measured after 8 days by ExMAC assay relative to untreated control. Type of assay: functional. Also noted: scale not given: the % may be the effect or the level left.
The subject of assay [25] is Eimeria maxima. The assay is described as follows: Anticoccidial activity against Eimeria maxima in chickens assessed as reduction of oocysts at 12.5 ppm measured after 8 days by ExMAC assay relative to untreated control. Type of assay: functional. Also noted: scale not given: the % may be the effect or the level left.
In assay [26] the test system is Eimeria maxima. The experiment in a line: Anticoccidial activity against Eimeria maxima in chickens assessed as reduction of oocysts at 10 ppm measured after 8 days by ExMAC assay relative to untreated control. The class given is functional. More on the design: scale not given: the % may be the effect or the level left.
Assay [27] concerns Eimeria mitis. The assay is described as follows: Anticoccidial activity against Eimeria mitis in chickens assessed as reduction of oocysts at 8 ppm measured after 8 days by ExMAC assay relative to untreated control. The class given is functional. More on the design: scale not given: the % may be the effect or the level left.
For assay [28], the system named is Eimeria maxima. The assay is described as follows: Anticoccidial activity against Eimeria maxima in chickens assessed as reduction of oocysts at 25 ppm measured after 8 days by ExMAC assay relative to untreated control. Type of assay: functional. Also noted: scale not given: the % may be the effect or the level left.
Assay [29] relates to Eimeria acervulina. The experiment in a line: Anticoccidial activity against Eimeria acervulina in chickens assessed as reduction of oocysts at 8 ppm measured after 8 days by ExMAC assay relative to untreated control. The class given is functional. More on the design: scale not given: the % may be the effect or the level left.
Assay [30] deals with Eimeria mitis. The assay is described as follows: Anticoccidial activity against Eimeria mitis in chickens assessed as reduction of oocysts at 12.5 ppm measured after 8 days by ExMAC assay relative to untreated control. The class given is functional. More on the design: scale not given: the % may be the effect or the level left.
Assay [31] has as its system Eimeria mitis. The experiment in a line: Anticoccidial activity against Eimeria mitis in chickens assessed as reduction of oocysts at 25 ppm measured after 8 days by ExMAC assay relative to untreated control. Type of assay: functional. More on the design: scale not given: the % may be the effect or the level left.
The test system of assay [32] is Eimeria tenella. The experiment in a line: Anticoccidial activity against Eimeria tenella in chickens assessed as reduction of oocysts at 12.5 ppm measured after 8 days by ExMAC assay relative to untreated control. The class given is functional. More on the design: scale not given: the % may be the effect or the level left.
Assay [33] concerns Eimeria maxima. The assay is described as follows: Anticoccidial activity against Eimeria maxima in chickens assessed as reduction of oocysts at 8 ppm measured after 8 days by ExMAC assay relative to untreated control. Type of assay: functional. More on the design: scale not given: the % may be the effect or the level left.

The IC50 is the point on the concentration scale where inhibition reaches its midpoint.

Molecules are shown by their SMILES. Where only a bound is given, the exact number is not on record here.

Chain of cGMP-dependent protein kinase (Q8MMZ8 whole entry): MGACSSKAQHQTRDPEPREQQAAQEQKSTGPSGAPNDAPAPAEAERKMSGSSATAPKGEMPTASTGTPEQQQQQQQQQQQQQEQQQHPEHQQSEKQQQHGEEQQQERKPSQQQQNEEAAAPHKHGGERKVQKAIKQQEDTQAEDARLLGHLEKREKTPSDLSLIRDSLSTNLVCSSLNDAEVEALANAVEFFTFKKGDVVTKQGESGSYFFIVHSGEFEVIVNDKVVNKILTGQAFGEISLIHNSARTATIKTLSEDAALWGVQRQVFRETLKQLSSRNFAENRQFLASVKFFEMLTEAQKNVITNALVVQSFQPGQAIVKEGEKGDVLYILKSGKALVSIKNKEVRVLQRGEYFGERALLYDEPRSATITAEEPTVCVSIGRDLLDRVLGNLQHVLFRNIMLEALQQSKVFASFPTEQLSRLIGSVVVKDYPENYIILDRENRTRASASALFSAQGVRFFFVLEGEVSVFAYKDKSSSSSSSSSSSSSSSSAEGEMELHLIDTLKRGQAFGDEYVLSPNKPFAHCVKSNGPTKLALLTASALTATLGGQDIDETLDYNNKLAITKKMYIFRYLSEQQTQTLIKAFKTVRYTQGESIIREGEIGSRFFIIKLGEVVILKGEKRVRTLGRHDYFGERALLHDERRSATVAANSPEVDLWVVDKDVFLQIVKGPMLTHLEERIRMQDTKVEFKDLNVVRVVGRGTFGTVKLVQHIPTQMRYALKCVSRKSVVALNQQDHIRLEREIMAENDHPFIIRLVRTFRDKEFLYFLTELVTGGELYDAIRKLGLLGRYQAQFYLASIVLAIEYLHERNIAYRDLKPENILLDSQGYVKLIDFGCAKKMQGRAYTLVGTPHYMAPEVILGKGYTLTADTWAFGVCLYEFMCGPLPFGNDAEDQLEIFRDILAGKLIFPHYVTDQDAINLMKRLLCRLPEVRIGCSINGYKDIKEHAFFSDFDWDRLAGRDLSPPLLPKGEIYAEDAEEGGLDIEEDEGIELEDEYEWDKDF

For `NC(=O)c1ccn2c(-c3ccnc(N)n3)c(-c3ccc(F)cc3)nc2c1`, the Activity in the assay on Eimeria maxima [1] is 50%; in the assay with Eimeria acervulina [3], under 50%; with Eimeria mitis [4] it was under 50%; in the assay on Eimeria tenella [5] it was 80%. Further, the IC50 in assay [2] was 1.8 nM.
`CC(C)(N)c1ccn2c(-c3ccnc(N)n3)c(-c3ccc(F)cc3)nc2c1`: the Activity is reported as under 50% in the assay with Eimeria tenella [6]; 100% in the assay with Eimeria maxima [7]; under 50% with Eimeria mitis [8]; 80% in the assay with Eimeria maxima [9]; 80% in the assay with Eimeria tenella [10]; under 50% in the assay on Eimeria mitis [11]. Further, the Activity with Eimeria acervulina [12] is on record as 50%; with Eimeria tenella [13] it was 100%; in the assay on Eimeria mitis [14], under 50%; in the assay with Eimeria maxima [15], 80%; in the assay on Eimeria acervulina [16], 80%; in the assay on Eimeria acervulina [17] it was 80%. In assay [2], this compound had a half-inhibitory concentration (IC50) of 0.145 nM.
As for `CCN1CCC(c2ccn3c(-c4ccnc(N)n4)c(-c4ccc(F)cc4)nc3c2)CC1`, the Activity in the assay with Eimeria acervulina [18] is listed as 100%; with Eimeria tenella [19], 100%; with Eimeria acervulina [20], 80%; in the assay with Eimeria tenella [21], 100%; with Eimeria mitis [22] it was 80%; with Eimeria acervulina [23] it was 80%. For the same compound, the Activity in the assay on Eimeria mitis [8] is given as 80%; with Eimeria maxima [9] it was under 50%; in the assay with Eimeria tenella [10], 100%; in the assay on Eimeria tenella [24], 100%; in the assay with Eimeria maxima [25] it was 100%; with Eimeria maxima [26] it was 100%. In addition, the Activity was found to be 80% with Eimeria mitis [27]; 100% with Eimeria maxima [28]; 80% in the assay with Eimeria acervulina [29]; 100% with Eimeria mitis [30]; 100% in the assay on Eimeria mitis [31]; 100% in the assay with Eimeria tenella [32]. The Activity in the assay on Eimeria maxima [33] is listed as 100%; with Eimeria acervulina [17], under 50%. Also, 0.11 nM corresponded to half-maximal inhibition in assay [2] (IC50).
